Assay results reported in patent publication US20130008801A1, “METHODS AND COMPOSITIONS FOR APPLICATIONS RELATED TO MICROBIOLOGICALLY INFLUENCED CORROSION” (priority 2010, published 2013).

Key:
[1] = test system: Desulfovibrio desulfuricans ATCC7757 (SRB) on carbon steel coupons; experiment: MIC pitting test: SRB with carbon steel coupons in anaerobic vials, pits examined by SEM and IFM; format: cell-based, Desulfovibrio desulfuricans (ATCC 7757); details: promoter added to the test medium at a low concentration; C1018 carbon steel coupon, ATCC 1249 medium, 37° C., 7 days; versus no promoter (FIG. 2)
Experimental: Y-axis is pit depth in microns and x-axis pit position in microns.
(§1) The BCSR theory indicates a bottleneck in MIC due to SRB. To resolve the bottleneck, an electron carrier or mediator was added as an MIC “promoter” into 100 ml anaerobic vials containing SRB and carbon steel coupons. This MIC promoter is not corrosive by itself. After a week of SRB growth, coupons were examined using SEM and IFM (Infinite Focus Microscopy). Desulfovibrio desulfuricans ATCC7757 was used to represent SRB in this work. […] Liquid medium was deoxygenated using nitrogen sparging. To study the pits on a carbon steel coupon, the coupon surface was cleaned using an acid solution before SEM and IFM.

[2] = test system: planktonic or sessile SRB; experiment: SRB growth in the culture medium with MIC promoter; format: cell-based, Desulfovibrio desulfuricans (ATCC 7757); details: culture medium used in this work; repeated experiments
From the text: Second, the BCSR theory points to the existence of “MIC promoters.” Guided by this, we have successfully found a class of chemicals that can greatly accelerate BCSR leading to much more severe MIC pitting. […] This discovery leads to a new aspect of MIC monitoring, and a non-biocidal mitigation method that may even allow us to live with corrosive microbes with much reduced MIC pitting when the promoter's MIC acceleration effect is inhibited.
as §1

## Cc1cc2nc3c(=O)[nH]c(=O)nc-3n(C[C@H](O)[C@H](O)[C@H](O)CO)c2cc1C [riboflavin]
[1]
  MIC pit depth: dramatic MIC pit depth increase
[2]
  planktonic or sessile SRB growth: did not promote planktonic or sessile SRB growth
